Assay results: publication PMC9468151, “Identification of a binding site on soluble RANKL that can be targeted to inhibit soluble RANK-RANKL interactions and treat osteoporosis” (Nature Communications, 2022)
Several values for one entry are separate records, joined by “and”; a condition that tells them apart may be missing. Identical values can stand only once.

B1: GST tag recombinant rat sRANKL (GST-sRANKL) (ligand, UniProt Q9ESE2 160-318, looked up)
chain: KPEAQPFAHLTINAADIPSGSHKVSLSSWYHDRGWAKISNMTLSNGKLRVNQDGFYYLYANICFRHHETSGSVPADYLQLMVYVVKTSIKIPSSHNLMKGGSTKNWSGNSEFHFYSINVGGFFKLRAGEEISVQVSNPSLLDPDQDATYFGAFKVQDID
notes: also called soluble RANKL; source: E. coli BL21 (DE3), purified (glutathione sepharose, Superdex 200 Increase)
B2: label-free rat sRANKL (wild type) (ligand, UniProt Q9ESE2 160-318, looked up)
chain: B1 chain
notes: RANKL, rat, soluble form sRANKL; also called WT sRANKL; soluble RANKL; source: E. coli BL21 (DE3), purified (Ni-NTA, released by Ulp1, HiLoad Superdex 200); not shown: His6, N-terminal, cleaved; SUMO, N-terminal, cleaved

Key:
[1] = test system: sRANKL induced osteoclast differentiation; assay: In vitro anti-osteoclastogenesis activity determination (TRAP staining); format: cell-based, mouse; set-up: key to inhibition of osteoclastogenesis, dose-response (fig. S2a): % inhibition = 100 − (treated−unstimulated)/(untreated−unstimulated)×100; settings: for IC50: BMMs, M-CSF + 100 ng/mL sRANKL, 5 days, TRAP staining, read-out: OC IC50 (anti-osteoclastogenesis activity); for inhibition of osteoclastogenesis, dose-response (fig. S2a): three replicate columns
Method in brief: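 Mouse bone-marrow macrophages in 10 ng/mL M-CSF were stimulated with 100 ng/mL sRANKL plus compound at 9 concentrations, refreshed every 2 days, triplicate wells. After 5 days TRAP-stained osteoclasts were counted; inhibition normalised to untreated and unstimulated controls, IC50 by nonlinear regression.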

[2] = test system: RAW264.7 cells; assay: In vitro cytotoxicity assay (MTT); format: cell-based, mouse; settings: RAW264.7, MTT
Protocol: MTT assay was used to determine cell viability. RAW264.7 cells in the logarithmic growth phase were cultured in 96-well plates with 6 × 10^3 cells in each well and incubated for 24 h. The surviving cells were then determined by MTT method. […] Cell growth inhibition ratio was calculated as follows: Cellgrowthinhibitionratio%=ODvehicle−ODtreaed/ODvehicle×100%
Cell cytotoxicity CC50 value were conducted by using Nonlinear regression (curve fit) analytic procedure in GraphPad Prism 8.

[3] = biological target: T1, sRANKL (Rattus norvegicus, UniProt Q9ESE2, D175N); assay: Surface plasmon resonance (SPR) assay; format: binding; settings: immobilized sRANKL, 25 °C
T1 construct: (1) sRANKL (rat 159-318 aa); His6-sumo (N, cleaved yes); made in house; host or cells: Escherichia coli BL21 (DE3)
T1 sequence (Q9ESE2 159-318 D175N): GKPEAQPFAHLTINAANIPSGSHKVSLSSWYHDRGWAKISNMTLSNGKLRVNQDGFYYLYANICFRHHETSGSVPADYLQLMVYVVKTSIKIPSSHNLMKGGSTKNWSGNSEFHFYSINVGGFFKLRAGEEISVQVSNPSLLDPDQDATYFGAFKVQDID
Protocol: A ProteOn XPR36TM SPR instrument (BioRad Hercules, CA) was used for carrying out SPR assays. sRANKL protein in PBS buffer, pH 7.4, was diluted to 20 nM in 10 mM sodium acetate buffer, pH 5.5 and immobilized in parallelflow channels of a the EDAC/Sulfo-NHS activated surface of a GLH biosensor chip (Bio-Rad) with an amine coupling kit (Bio-Rad). The surface was blocked with 1 M ethanolamine. The final immobilization level for sRANKL was approximately 14,000 RU. A blank immobilization channel in the same GLH biosensor chip was also activated with EDAC/Sulfo-NHS and blocked with 1 M ethanolamine to use as a reference.
Biosensor binding experiments were conducted in filtered and degassed running buffer (PBS containing 0.005% Tween-20, pH 7.4) at 25 °C. Compounds was dissolved in 100% DMSO in appropriate different series concentrations of stock solutions. Before detecting, compounds were diluted in six or five concentrations with running buffer and ensured that the content of DMSO contained in each detected concentration was consistent. Compounds in different concentrations were injected simultaneously at a flow rate at […] for 180 s and 120 s for the association phase, followed by 180 s for the disassociation. Following the compound injection, the chip surface was regenerated with 40 s pulses of 0.85% H3PO4 and running buffer.
ProtedOn Manager 2.0. was used for data analysis. Each set of sensorgrams was globally analyzed using the 1:1 Langmuir binding model to obtain the kinetic rate constants (Kon and Koff). Global kinetic rate constants (ka and kd) were derived for each reaction, and the equilibrium dissociation constant, KD, was calculated using the equation KD = kd/ka.

[4] = biological target: T2, recombinant RANK (mouse extracellular RANK fragment, residues 26-210) (mouse, UniProt O35305 26-210); assay: pull-down; 120 ug GST-sRANKL on the resin in PBS with 1% BSA, room temperature; compounds (50 uM) or 0.8% DMSO control for 30 min, then 25 ug RANK for 20 min; SDS-PAGE, Coomassie blue; settings: both partners purified
T2 construct: RANK (TNFRSF11A), mouse, extracellular fragment, residues 26-210, cloned into pET28a between Nde I and Xho I; In the functional rows the RANK that was present is the endogenous receptor on mouse bone marrow cells; also called soluble RANK
T2 sequence (looked up): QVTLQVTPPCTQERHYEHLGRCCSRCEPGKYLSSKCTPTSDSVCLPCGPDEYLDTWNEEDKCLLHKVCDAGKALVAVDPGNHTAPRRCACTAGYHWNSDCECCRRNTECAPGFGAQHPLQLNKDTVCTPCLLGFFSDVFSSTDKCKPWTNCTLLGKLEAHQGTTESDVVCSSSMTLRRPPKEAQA

[5] = biological target: the molecule itself; assay: cross-linking; cross-link assay of sRANKL with S3-15; methods not shown

Molecule	IC50 [1]	inhibition of osteoclastogenesis, dose-response (fig. S2a) ([1]; conc. 0.0023464 μM)	inhibition of osteoclastogenesis, dose-response (fig. S2a) ([1]; conc. 0.00774313 μM)	inhibition of osteoclastogenesis, dose-response (fig. S2a) ([1]; conc. 0.0255523 μM)	inhibition of osteoclastogenesis, dose-response (fig. S2a) ([1]; conc. 0.0843226 μM)	inhibition of osteoclastogenesis, dose-response (fig. S2a) ([1]; conc. 0.278265 μM)	inhibition of osteoclastogenesis, dose-response (fig. S2a) ([1]; conc. 0.918274 μM)	inhibition of osteoclastogenesis, dose-response (fig. S2a) ([1]; conc. 3.0303 μM)	inhibition of osteoclastogenesis, dose-response (fig. S2a) ([1]; conc. 10 μM)	inhibition of osteoclastogenesis, dose-response (fig. S2a) ([1]; conc. 33 μM)	CC50 [2] [µM]	Kd [3] [µM]	binding result [4]	stoichiometry N [5]
CCOC(=O)c1sc(NC(=O)C(=NNc2cccc(C(=O)O)c2)C(C)=O)nc1C [S3-03]	0.36 µM	4.313 and 4.012 and -1.404	4.012 and 1.304 and -0.5015	11.5346 and 24.4734 and 19.659	33.8014 and 30.1906 and 37.1113	47.6429 and 50.0502 and 47.342	51.8556 and 56.9709 and 59.3781	77.4323 and 79.5386 and 69.007	99.0973 and 98.7964 (2×)	100	33.9	33.7		
CC(=O)C(=NNc1ccccc1C(=O)O)C(=O)Nc1nccs1 [S3-09]		-0.7659 (2×) and 2.516	0.2188 and -0.1094 and 1.86	6.455 and 3.501 and 2.845	10.3939 and 2.845 and 7.44	45.186 and 26.8053 and 32.3851	57.9869 (2×) and 48.7965	69.1466 and 68.8184 and 61.9256	80.6346 and 77.0241 and 79.6499	100	> 100	33.7		
CC(=O)C(=NNc1ccccc1C(=O)O)C(=O)Nc1nc(C)c(C(=O)O)s1 [S3-01]		5.532 (2×) and 2.66	13.1915 and 15.7447 and 16.7021	9.043 and 12.234 and 13.5106	12.234 and 16.7021 and 15.1064	42.234 and 40.3192 and 42.5532	61.7021 and 57.234 and 62.3404	74.1489 and 77.0213 and 79.8936	99.3617 (2×) and 99.0426	100	62.3	211		
CCOC(=O)c1sc(NC(=O)C(=NNc2ccc(C(=O)O)cc2)C(C)=O)nc1C [S3-02]	1.24 µM and > 1 µM	0.3058 and -2.446 and -0.3058	12.2324 and 9.48 and 14.6789	19.5719 and 20.7951 and 20.4893	19.5719 and 21.7125 and 20.1835	22.9358 and 29.3578 (2×)	32.1101 and 33.9449 and 35.474	59.0214 and 60.5505 and 61.1621	81.6514 and 80.7339 and 87.7676	100	41.9	38		
B1													binds	
B2														3
